For one compound, solubility results are on record in patent US20120258926A1, “FORMULATIONS OF ACADESINE” (priority 2009, published 2012).

≈ marks a conversion by molar mass, not a printed value. Like-named read-outs stand apart in the source and are kept apart here.

The data set can be described thus: Solubility data of acadesine in injectable solution. The format is physicochemical.

One may read the solubility as how much of the substance goes into solution per volume. As to `NC(=O)c1ncn([C@@H]2O[C@H](CO)[C@@H](O)[C@H]2O)c1N` [Acadesine, 5-aminoimidazole-4-carboxamide (AICA) riboside], the solubility (5° C., injectable solution pH 6.0-8.0 (with antioxidant), read-out: solubility data supports) came to 18 mg/mL (≈ 69.7 mM); the solubility (5° C., injectable solution pH 7.2-8.0, read-out: solubility data supports) came to 18 mg/mL (≈ 69.7 mM); the solubility (5° C., injectable solution pH range 8.8-9.6, read-out: Available solubility data supports up to) is not above 21.5 mg/mL; the solubility (5 °C, injectable solution pH 8.8-9.6, read-out: solubility data supports) stood at 18 mg/mL (≈ 69.7 mM); the solubility (Room temperature, injectable solution pH 6.0-8.0 (with antioxidant), read-out: solubility data supports) was 60 mg/mL (≈ 232 mM); the solubility (Room temperature, injectable solution pH 7.2-8.0, read-out: solubility data supports) turned out to be 60 mg/mL (≈ 232 mM). For the same compound, the solubility (Room temperature, injectable solution pH 8.8-9.6, read-out: solubility data supports) stood at 60 mg/mL (≈ 232 mM).
